Measured values taken from the supplement of paper PMC6580486.

tested on: U23674 (mouse alveolar rhabdomyosarcoma primary culture)
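Further: alveolar rhabdomyosarcoma tumor culture.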

| SMILES | IC50 cell viability |
| --- | --- |
| c1ccc(Oc2ccc(Nc3ncc(-c4ccccc4)o3)cc2)cc1 | > 10 µM |
| CS(=O)(=O)CCNCc1ccc(-c2ccc3ncnc(Nc4ccc(OCc5ccccc5)c(Br)c4)c3c2)o1 | > 10 µM |
| O=C1Nc2ccc(I)cc2C1=Cc1cc(Br)c(O)c(Br)c1 | > 10 µM |
| CNC(=O)c1sc(-n2cnc3cc(OC)c(OC)cc32)cc1OCc1ccccc1C(F)(F)F | > 10 µM |
| Fc1ccc(-c2nn3ncccc3c2-c2ccnc(Nc3ccc4c(c3)OCCO4)n2)cc1 | > 10 µM |
| CCCN1CCCC(c2ccc(Nc3nc(Nc4cc(F)ccc4C(N)=O)c4cc[nH]c4n3)c(OC)c2)C1 (configuration not stated) | 1.4 µM |
| COC(=O)c1cncc(/C=C/c2c(C)cc(O)cc2C)c1 | > 10 µM |
| O=C(Nc1ccc(Oc2ccc3nc(NC(=O)c4ccccc4)[nH]c3c2)cc1)Nc1cc(C(F)(F)F)ccc1F | > 10 µM |
| O=C(NCC1CC1)c1ccc(-c2cccc(C(=O)NC3CC3)c2)cc1 | > 10 µM |
| CCn1c(-c2nonc2N)nc2c(C#CC(C)(C)O)nc(OC[C@@H](N)c3ccccc3)cc21 | > 10 µM |
| COc1cc2ncn(-c3cc(OCc4ccccc4C(F)(F)F)c(C(N)=O)s3)c2cc1OC | > 10 µM |
| N#Cc1cccc(Nc2nccc(-c3cnn4ncccc34)n2)c1 | 0.05 µM |
| CCn1c(-c2nonc2N)nc2c(N3CCCC3)nccc21 | > 10 µM |
| Cc1ccc(O)cc1Nc1ccnc2cc(-c3ccccn3)ccc12 | > 10 µM |
| CS(=O)(=O)CCNCc1nc(-c2ccc3ncnc(Nc4ccc(OCc5cccc(C(F)(F)F)c5)cc4)c3c2)cs1 | > 10 µM |
| NC(=O)c1cccc(Nc2nccc(Nc3cccc(F)c3)n2)c1 | > 10 µM |
| COc1cccc(-n2ncc3c(N/N=C/c4ccc(S(C)(=O)=O)cc4)ncnc32)c1 | > 10 µM |
| Cc1cc(-c2ccco2)cc(C)c1/C=C/c1cncc(-c2nn[nH]n2)c1 | > 10 µM |
| CN(C)CCOc1ccc(-c2cc(-c3ccc4c(c3)CCC4=NO)c(-c3ccncc3)o2)cc1 | > 10 µM |
| FC(F)(F)c1ccc(-c2nn3ncccc3c2-c2ccnc(Nc3ccc4c(c3)OCCO4)n2)cc1 | > 10 µM |
| N#Cc1c(NC(=O)c2cccc3ccccc23)sc2c1CCCC2 | 3.5 µM |
| COc1ccc2cc(-c3c(-c4ccncc4)nc(-c4ccc([S+](C)[O-])cc4C)n3C)ccc2c1 (configuration not stated) | > 10 µM |
| Cc1ccc(NC(=O)c2ccoc2)cc1-c1ccc(C(=O)NCC2CC2)cc1 | > 10 µM |
| NS(=O)(=O)c1ccc(Nc2cc(-c3ccc(O)c(F)c3)[nH]n2)cc1 | > 10 µM |
| COc1ccc2[nH]c3c4[nH]c5ccc(OC)cc5c4c4c(c3c2c1)C(=O)NC4=O | > 10 µM |

| SMILES | IC50 cell viability |
| --- | --- |
| CS(=O)(=O)CCNCc1ccc(-c2ccc3ncnc(Nc4ccc(OCc5ccccc5)c(Cl)c4)c3c2)o1 | > 10 µM |
| COc1ccc(-c2ccc3c(NC(=O)C4CC4)n[nH]c3n2)cc1 | > 10 µM |
| Nc1nccc(-c2c(-c3ccc(F)cc3)ncn2C2CCC(O)CC2)n1 (configuration not stated) | > 10 µM |
| COc1cccc(-n2ncc3c(N/N=C/c4cccc(F)c4)ncnc32)c1 | > 10 µM |
| CS(=O)(=O)CCNCc1ccoc1-c1ccc2ncnc(Nc3ccc(OCc4ccccc4)cc3)c2c1 | > 10 µM |
| CC1=C(C(=O)Nc2cc(Cl)c3[nH]ncc3c2)C(c2ccc(C(F)(F)F)cc2)CC(=O)N1 (configuration not stated) | > 10 µM |
| NS(=O)(=O)c1ccc(N=Nc2c(O)[nH]c3ccc(C(=O)NCc4ccncc4)cc23)cc1 | > 10 µM |
| CN(C)CCOc1ccc(-c2nc(-c3ccncc3)c(-c3ccc4c(c3)CC/C4=N\O)[nH]2)cc1 | > 10 µM |
| O=C1Nc2ccccc2C1=C1CCc2cc(O)ccc21 | > 10 µM |
| CCN(CC)S(=O)(=O)c1ccc(OC)c(Nc2ncc(-c3ccccc3)o2)c1 | > 10 µM |
| Nc1nc(-c2ccc3c(c2)C(=Cc2cc(Br)c(O)c(Br)c2)C(=O)N3)cs1 | > 10 µM |
| COc1cccc(/C=N/Nc2ncnc3c2cnn3-c2cccc(OC)c2)c1 | > 10 µM |
| Fc1cccc(COc2ccc(Nc3ncncc3C#Cc3ccccc3)cc2Cl)c1 | > 10 µM |
| CCn1c(-c2nonc2N)nc2c(C#CC(C)(C)O)nc(OC[C@H](N)c3ccccc3)cc21 | 1.6 µM |
| COC(=O)Nc1nc2ccc(Oc3ccc(NC(=O)Nc4cccc(C(=O)O)c4)cc3)cc2[nH]1 | > 10 µM |
| N#Cc1c(NC(=O)c2ccc(F)cc2)sc2c1CCCC2 | > 10 µM |
| Nc1nccc(-c2c(-c3ccc(F)cc3)ncn2CCCN2CCOCC2)n1 | > 10 µM |
| CC(C)(CO)CNC(=O)c1ccc2[nH]c(O)c(N=Nc3ccc(S(N)(=O)=O)cc3)c2c1 | > 10 µM |
| O=C1Nc2ccc(C(=O)c3ccco3)cc2/C1=C/c1cc(Cl)c(O)c(Cl)c1 | > 10 µM |
| COc1cc(Nc2ncc3c(C)nc(-c4cccc(C(F)(F)F)c4)n3n2)cc(OC)c1OC | > 10 µM |
| COc1cc(Nc2nccc(Nc3ccc4c(C)[nH]nc4c3)n2)cc(OC)c1OC | 5.6 µM |
| CCn1c(-c2nonc2N)nc2cnc(Oc3cccc(NC(=O)c4ccc(OCCN5CCOCC5)cc4)c3)cc21 | > 10 µM |
| CCn1c(-c2nonc2N)nc2ccccc21 | > 10 µM |
| COc1cccc(Nc2nccc(-c3cnn4ncccc34)n2)c1 | 0.01 µM |
| COc1ccc(-c2cc3c(N)ncnc3o2)cc1 | > 10 µM |

| SMILES | IC50 cell viability |
| --- | --- |
| COC(=O)Nc1nc2ccc(Oc3ccc(NC(=O)Nc4cccc(Cl)c4)cc3)cc2[nH]1 | > 10 µM |
| COc1cc2c(cc1Nc1nc(N3CCc4ccccc43)c3cc[nH]c3n1)N(C(=O)CN(C)C)CC2 | 0.05 µM |
| Cc1cc(-c2ccccn2)cc(C)c1/C=C/c1cncc(-c2nn[nH]n2)c1 | > 10 µM |
| CCOc1ccc2c(-c3ccnc(Nc4cc(OC)cc(C(F)(F)F)c4)n3)cnn2n1 | > 10 µM |
| COc1cc2c(cc1Nc1nc(Nc3ccsc3C(N)=O)c3cc[nH]c3n1)N(C(=O)CN(C)C)CCC2 | 0.05 µM |
| CN1CCC(C(=O)Nc2n[nH]c3nnc(-c4ccccc4)cc23)CC1 | > 10 µM |
| NC(=O)c1cc(-c2ccc(F)cc2)cc(-c2ccncc2)c1N | > 10 µM |
| FC(F)(F)CNc1nccc(-c2cnn3ncccc23)n1 | 4.4 µM |
| COc1cc2ncn(-c3cc(OCc4ccccc4Cl)c(C(N)=O)s3)c2cc1OC | > 10 µM |
| COc1cccc(-c2c[nH]c3c(N/N=C/c4ccncc4)ncnc23)c1 | > 10 µM |
| O=C(Nc1n[nH]c2cc(-c3ccccc3)ccc12)C1CC1 | > 10 µM |
| Cc1cc(Cl)cc2c(N=Nc3ccc(S(N)(=O)=O)cc3)c(O)[nH]c12 | > 10 µM |
| Nc1ccc(C#Cc2cncnc2Nc2ccc(OCc3cccc(F)c3)c(Cl)c2)cc1 | > 10 µM |
| Cc1ccc(C(=O)NC(C)C)cc1-c1ccc(C(=O)NCC2CC2)cc1 | > 10 µM |
| OCc1ccc(-c2nc(-c3ccc4c(c3)OCO4)c(-c3ccccn3)[nH]2)cc1 | > 10 µM |
| CCc1nn2ncccc2c1-c1ccnc(NC2CC2)n1 | > 10 µM |
| COc1cccc(-n2ncc3c(N/N=C/c4ccc(F)cc4)ncnc32)c1 | > 10 µM |
| COc1cc(C)c(NC(=O)CN(C)C)cc1Nc1nc(Nc2cccc(F)c2C(N)=O)c2cc[nH]c2n1 | > 10 µM |
| Cc1ccc2c(-c3ccnc(Nc4ccccc4)n3)c(-c3ccc(F)cc3)nn2n1 | > 10 µM |
| O=C(Nc1n[nH]c2nc(-c3ccc(O)cc3)c(Br)cc12)C1CC1 | > 10 µM |
| COc1cc(N2CCN(C(C)C)CC2)ccc1Nc1nc(Nc2cccc3ncccc23)c2cc[nH]c2n1 | > 10 µM |
| CS(=O)(=O)CCNCc1ccc(-c2ccc3ncnc(Nc4ccc(OCc5ccccc5)c(C(F)(F)F)c4)c3c2)o1 | > 10 µM |
| CCS(=O)(=O)c1ccc(OC)c(Nc2ncc(-c3ccccc3Cl)o2)c1 | > 10 µM |
| c1cnn2ncc(-c3ccnc(NCCCN4CCOCC4)n3)c2c1 | > 10 µM |
| O=C(Nc1n[nH]c2nc(-c3ccco3)c(Br)cc12)C1CC1 | > 10 µM |

| SMILES | IC50 cell viability |
| --- | --- |
| N#Cc1ccc(Oc2nccc(-c3c(-c4ccc(F)cc4)ncn3C3CCNCC3)n2)cc1 | > 10 µM |
| COC(=O)Nc1nc2ccc(Oc3cccc(NC(=O)Nc4cc(C(F)(F)F)ccc4F)c3)cc2[nH]1 | > 10 µM |
| O=S(=O)(CCNCc1ccc(-c2ccc3ncnc(Nc4ccc(OCc5cccc(F)c5)c(Cl)c4)c3c2)o1)c1ccccc1 | > 10 µM |
| COc1c(C(N)=O)cc(-c2ccc(Cl)cc2)cc1-c1ccc(S(N)(=O)=O)cc1 | > 10 µM |
| COC(=O)Nc1nc2ccc(Oc3ccc(NC(=O)Nc4ccccc4)cc3)cc2[nH]1 | > 10 µM |
| Cc1cc(O)cc(C)c1/C=C/c1cncc(C(=O)OC(C)(C)C)c1 | > 10 µM |
| CN(C)C(=O)O[C@H]1CN[C@H](C#Cc2cc3ncnc(Nc4ccc(OCc5cccc(F)c5)c(Cl)c4)c3s2)C1 | > 10 µM |
| Cc1ccc(C(=O)NC2CCC2)cc1-c1ccc(C(=O)NCC2CC2)cc1 | > 10 µM |
| c1ccc(Cc2nc3ccc(Nc4ncnc5ccccc45)cc3[nH]2)cc1 | > 10 µM |
| Cc1cccc2c(N=Nc3ccc(S(N)(=O)=O)cc3)c(O)[nH]c12 | > 10 µM |
| CN(C)c1cc2c(Nc3ccc4nc(Cc5ccccc5)[nH]c4c3)ncnc2cn1 | > 10 µM |
| CCCN(CCS(C)(=O)=O)Cc1ccc(-c2ccc3ncnc(Nc4ccc(OCc5cccc(F)c5)c(Cl)c4)c3c2)o1 | > 10 µM |
| O=C(OC1CNC(C#Cc2cc3ncnc(Nc4ccc5c(ccn5Cc5cc(F)ccc5F)c4)c3s2)C1)N1CCOCC1 (configuration not stated) | > 10 µM |
| Clc1ccc(CNc2nccc(-c3cnn4ncccc34)n2)cc1 | > 10 µM |
| COc1ccc(COc2ccc(Cc3cnc(N)nc3N)cc2OC)cc1 | > 10 µM |
| CCn1c(-c2nonc2N)nc2ccncc21 | > 10 µM |
| c1ccc(COc2ccc(Nc3ncnc4ccc(-c5ccco5)cc34)cc2)cc1 | > 10 µM |
| CCn1c(-c2nonc2N)nc2c(C#CC(C)(C)O)nc(OCCNC)cc21 | 1.3 µM |
| COc1cc(N2CCN(C(C)C)CC2)ccc1Nc1nc(Nc2cccc(F)c2C(=O)O)c2cc[nH]c2n1 | > 10 µM |
| Cc1cc(O)cc(C)c1/C=C/c1cncc(C(N)=O)c1 | > 10 µM |
| CC(=O)NCc1cccc(C#Cc2cncnc2Nc2ccc(OCc3cccc(F)c3)c(Cl)c2)c1 | > 10 µM |
| COc1cc2ncn(-c3cc(O[C@H](C)c4ccccc4Cl)c(C(N)=O)s3)c2cc1OC | 0.1 µM |
